Measurements from patent US7781565B2 (priority 2006, dated 2010).
Entries after “also recorded” stand apart in the source; their conditions may differ.

System: NCI-60 cell lines
Format: cell-based, human

GSSGLLA
Cell Line the peptide is associated with (peptide recovered from phage library selection on this NCI-60 cell line): NCI/ADR-RES Breast

MFARGWE
Cell Line with which the peptide (and its tripeptide motif) is associated: CCRF-CEM Leukemia

NRSSGRR
Cell Line with which the peptide (and its tripeptide motif) is associated: SR Leukemia

HGRVHRL
Cell Line with which the peptide (and its tripeptide motif) is associated: H23-Lung

RRDAGRM
Cell Line (NCI-60 cell line the peptide is associated with): SF-295 CNS

MRGVARK
Cell Line (NCI-60 cell line the peptide and its motif are associated with): A498 Renal

GEGRLCG
Cell Line the peptide is associated with (peptide recovered from phage library selection on this NCI-60 cell line): CAIK-1 Renal

ARAMGLR
Cell Line with which the peptide (and its tripeptide motif) is associated: Hop-62-Lung

FAGYGVL
Cell Line (NCI-60 cell line the peptide is associated with): SNB-19 CNS; also recorded: SF-539 CNS

DGGLNDC
Cell Line (NCI-60 cell line the peptide and its motif are associated with): OVCAR-5 Ovarian

GNGGARG
Cell Line (NCI-60 cell line the peptide and its motif are associated with): M14 Melanoma

LRYDLRS
Cell Line with which the peptide (and its tripeptide motif) is associated: RPMI-8226-Leukemia

TGVRNSP
Cell Line the peptide is associated with (peptide recovered from phage library selection on this NCI-60 cell line): UO31 Renal

GAHGLVR
Cell Line with which the peptide (and its tripeptide motif) is associated: SR Leukemia

AEGGSGH
Cell Line with which the peptide (and its tripeptide motif) is associated: A549-Lung

WAGLSPS
Cell Line with which the peptide (and its tripeptide motif) is associated: Hop-92-Lung

SAGLLPS
Cell Line (NCI-60 cell line the peptide and its motif are associated with): OVCAR-5 Ovarian

ALVSVAG
Cell Line (NCI-60 cell line the peptide is associated with): SF-295 CNS

GVRRSLL
Cell Line (NCI-60 cell line the peptide is associated with): SNB-75 CNS

HQAGGVT
Cell Line (NCI-60 cell line the peptide and its motif are associated with): UACC62 Melanoma

FPAVSTE
Cell Line the peptide is associated with (peptide recovered from phage library selection on this NCI-60 cell line): T-47D Breast

ALNRGSR
Cell Line the peptide is associated with (peptide recovered from phage library selection on this NCI-60 cell line): MDA-MB-231 Breast

AGSVYSV
Cell Line (NCI-60 cell line the peptide and its motif are associated with): OVCAR-5 Ovarian

RVRAVLG
Cell Line (NCI-60 cell line the peptide and its motif are associated with): SK-MEL-28 Melanoma

EGTSGSV
Cell Line (NCI-60 cell line the peptide is associated with): KM-12C Colon

RYRVSVY
Cell Line (NCI-60 cell line the peptide is associated with): KM-12C Colon

AGRIASK
Cell Line (NCI-60 cell line the peptide is associated with): HT-29 Colon

RRDGLVE
Cell Line (NCI-60 cell line the peptide and its motif are associated with): 786-0 Renal

SRHGLVR
Cell Line (NCI-60 cell line the peptide is associated with): HCT-15 Colon

SGGLAVA
Cell Line (NCI-60 cell line the peptide and its motif are associated with): UACC 257 Melanoma

DLRLSFP
Cell Line (NCI-60 cell line the peptide and its motif are associated with): UACC 257 Melanoma

RLETLLS
Cell Line the peptide is associated with (peptide recovered from phage library selection on this NCI-60 cell line): UO31 Renal

SGARLRS
Cell Line the peptide is associated with (peptide recovered from phage library selection on this NCI-60 cell line): T-47D Breast

LVSVNGA
Cell Line (NCI-60 cell line the peptide is associated with): SNB-19 CNS; also recorded: SF-539 CNS

AAGAGWR
Cell Line (NCI-60 cell line the peptide and its motif are associated with): OVCAR-4 Ovarian

GASLTGD
Cell Line with which the peptide (and its tripeptide motif) is associated: H460-Lung

DPRGLRV
Cell Line with which the peptide (and its tripeptide motif) is associated: HL-60-Leukemia

DTPSAVS
Cell Line (NCI-60 cell line the peptide is associated with): SF-268 CNS

GPSSMTF
Cell Line (NCI-60 cell line the peptide is associated with): COLO-205-Colon

CVGLGCH
Cell Line (NCI-60 cell line the peptide and its motif are associated with): OVCAR-4 Ovarian

CTAGSVS
Cell Line (NCI-60 cell line the peptide and its motif are associated with): IGROV1 Ovarian

LIGGLLS
Cell Line (NCI-60 cell line the peptide and its motif are associated with): SK-MEL-5 Melanoma

SGAGSVS
Cell Line (NCI-60 cell line the peptide and its motif are associated with): OVCAR-5 Ovarian

TGGSLGA
Cell Line with which the peptide (and its tripeptide motif) is associated: EKVX-Lung

WGSVAGI
Cell Line (NCI-60 cell line the peptide is associated with): SNB-75 CNS

SPTGGRR
Cell Line (NCI-60 cell line the peptide is associated with): LOX-IMVI Melanoma

VLFSAGS
Cell Line with which the peptide (and its tripeptide motif) is associated: K-562-Leukemia

VGLRDWG
Cell Line (NCI-60 cell line the peptide is associated with): SW620-Colon

AGSVDLV
Cell Line (NCI-60 cell line the peptide and its motif are associated with): SK-MEL-5 Melanoma

DGEGAGL
Cell Line (NCI-60 cell line the peptide is associated with): SNB-75 CNS

LFHTRSS
Cell Line (NCI-60 cell line the peptide and its motif are associated with): IGROV1 Ovarian

NEFLGRL
Cell Line (NCI-60 cell line the peptide is associated with): HCT-116 Colon

GSVSDRF
Cell Line (NCI-60 cell line the peptide is associated with): SF-268 CNS

VLTRAST
Cell Line (NCI-60 cell line the peptide is associated with): HCC-2998-Colon

RGSLLWA
Cell Line (NCI-60 cell line the peptide and its motif are associated with): UACC 257 Melanoma

TTLLSRQ
Cell Line (NCI-60 cell line the peptide and its motif are associated with): OVCAR-5 Ovarian

LAGSTRR
Cell Line with which the peptide (and its tripeptide motif) is associated: SR Leukemia

SDENGRL
Cell Line with which the peptide (and its tripeptide motif) is associated: HL-60-Leukemia

FVGSRGV
Cell Line (NCI-60 cell line the peptide is associated with): LOX-IMVI Melanoma

RGVNYRS
Cell Line the peptide is associated with (peptide recovered from phage library selection on this NCI-60 cell line): RXF393 Renal

GLVRCVL
Cell Line (NCI-60 cell line the peptide is associated with): COLO-205-Colon

RASRIGL
Cell Line the peptide is associated with (peptide recovered from phage library selection on this NCI-60 cell line): TK-10 Renal

GGVRIAA
Cell Line (NCI-60 cell line the peptide is associated with): HCT-116 Colon

AAVETGV
Cell Line (NCI-60 cell line the peptide is associated with): SF-268 CNS

RAVGRVA
Cell Line with which the peptide (and its tripeptide motif) is associated: HL-60-Leukemia

GSGQLIP
Cell Line (NCI-60 cell line the peptide and its motif are associated with): M14 Melanoma

AGGWWVG
Cell Line (NCI-60 cell line the peptide is associated with): HCT-15 Colon

SGRLWVG
Cell Line the peptide is associated with (peptide recovered from phage library selection on this NCI-60 cell line): RXF393 Renal

LRLSSIP
Cell Line with which the peptide (and its tripeptide motif) is associated: CCRF-CEM Leukemia

RVSGSPV
Cell Line the peptide is associated with (peptide recovered from phage library selection on this NCI-60 cell line): NCI/ADR-RES Breast

QVMMRGS
Cell Line with which the peptide (and its tripeptide motif) is associated: HL-60-Leukemia

VSRIGVR
Cell Line (NCI-60 cell line the peptide is associated with): LOX-IMVI Melanoma

AVDGLRL
Cell Line with which the peptide (and its tripeptide motif) is associated: SR Leukemia

VGRLAKG
Cell Line with which the peptide (and its tripeptide motif) is associated: Hop-62-Lung

GWGGGSA
Cell Line (NCI-60 cell line the peptide is associated with): MALME-3M Melanoma

GGSPGVW
Cell Line (NCI-60 cell line the peptide and its motif are associated with): SK-MEL-5 Melanoma

GSGSVRT
Cell Line the peptide is associated with (peptide recovered from phage library selection on this NCI-60 cell line): BT-549 Breast

SGVRPVI
Cell Line (NCI-60 cell line the peptide and its motif are associated with): SK-MEL-2 Melanoma

FDARGGL
Cell Line with which the peptide (and its tripeptide motif) is associated: CCRF-CEM Leukemia

ALAGGGL
Cell Line (NCI-60 cell line the peptide is associated with): SNB-75 CNS

ASLHHRR
Cell Line (NCI-60 cell line the peptide is associated with): SW620-Colon

LWGLGWL
Cell Line (NCI-60 cell line the peptide is associated with): HCC-2998-Colon

HAPGLRV
Cell Line (NCI-60 cell line the peptide is associated with): MALME-3M Melanoma

GLLSAGI
Cell Line (NCI-60 cell line the peptide is associated with): SF-268 CNS

RSLGSVG
Cell Line (NCI-60 cell line the peptide and its motif are associated with): DU-145 Prostate

MGVLTAE
Cell Line (NCI-60 cell line the peptide is associated with): SNB-19 CNS; also recorded: SF-539 CNS

GHSERLS
Cell Line the peptide is associated with (peptide recovered from phage library selection on this NCI-60 cell line): T-47D Breast

RSSLGLP
Cell Line with which the peptide (and its tripeptide motif) is associated: H226-Lung

PPRAVTN
Cell Line (NCI-60 cell line the peptide and its motif are associated with): UACC62 Melanoma

LLRSAAP
Cell Line with which the peptide (and its tripeptide motif) is associated: RPMI-8226-Leukemia

HVKNGRV
Cell Line (NCI-60 cell line the peptide and its motif are associated with): SK-MEL-28 Melanoma

VRAVCLM
Cell Line (NCI-60 cell line the peptide is associated with): SNB-75 CNS

VYWWGVS
Cell Line the peptide is associated with (peptide recovered from phage library selection on this NCI-60 cell line): A498 Renal

KGSVLML
Cell Line the peptide is associated with (peptide recovered from phage library selection on this NCI-60 cell line): NCI/ADR-RES Breast

RLSWTVL
Cell Line (NCI-60 cell line the peptide and its motif are associated with): PC3 Prostate

CRRSSLL
Cell Line (NCI-60 cell line the peptide and its motif are associated with): SK-MEL-2 Melanoma

WFKGPSV
Cell Line (NCI-60 cell line the peptide is associated with): SF-268 CNS
